Tested on: 5-LO
Experiment: Procedure IV: ex vivo eicosanoid synthesis assay using dogs, 5-LO (LTB4)
Assay type: in vivo
Conditions: dog, oral, 5 mg/kg
Procedure: Adult beagle or mongrel dogs (10-15 kg) of either sex were fasted overnight prior to the initiation of each experiment. The forelimb was clipped and swabbed with an alcohol prep (70% isopropanol). Blood was drawn by venipuncture into syringes containing lithium heparin (Starstead, Newton, N.C.) immediately prior to administration of compound or vehicle and then at various intervals following dosing. The test compound was administered orally as a suspension in 0.5% methocel. At various times after dosing, blood samples were drawn and placed on an electric rocker platform to assure complete and continuous mixing. White blood cell (wbc) counts were performed using a Sysmex hematology analyzer. This was done in an effort to normalize the number of leukocytes to be stimulated with calcium ionophore. A 1.0 mL aliquot of whole blood was challenged with 50 μL of a 2.6×10^-5 M solution of calcium ionophore A23187 (Calbiochem, La Jolla, Calif.) prepared in DMSO and diluted in HBSS. After a 15 minute incubation at 37° C., the reaction was stopped by placing the samples in an ice bath (4° C.) for 5 minutes and then centrifuging at 11,000×g for 5 minutes to separate the plasma fraction from blood cells. The plasma fraction was removed, diluted in an appropriate buffer, and analyzed for the presence of LTB4 and TxB2 by standard RIA techniques.

COc1ccc(-n2nc(C#CCN(O)C(N)=O)cc2-c2ccc(C)cc2)cc1 [Cpd 1, N-Hydroxy-N-(1(1-(4-methoxyphenyl)-5-(4-methylphenyl)pyrazol-3-yl)-1-propyn-3-yl)urea]
% inh 5-LO (1 h): 56% | % inh 5-LO (2 h): 53% | % inh 5-LO (4 h): 32% | % inh 5-LO (8 h): 15% | % inh 5-LO (24 h): 10%

Source: patent US5925769A, “Acetylenic 1,5-diarylpyrazoles as antiinflammatory agents” (Ortho Pharmaceutical, Corp., priority 1998, dated 1999)
